Data from US20140295045A1, “Pyridine Derivatives With Umami Flavour” (Givaudan S.A., priority 2009, published 2014).

What was measured:
Type in all cases: in vivo, human
trained sensory panel [1] = experiment: Testing of compounds: tasting of 0.3% NaCl solution with 2 ppm compound by trained sensory panel; conditions: 2 ppm compound in a solution of 0.3% NaCl; trained sensory panel of 20 women
Method: Various compounds prepared in the previous examples were tested. Two solutions were prepared: A: a solution of 0.3% NaCl, B: a solution of 0.3% NaCl and 2 ppm compound as per Table 1. The samples were tasted by a trained sensory panel composed of 20 women aged between 30 and 60.

bench-top tasting panel [2] = experiment: Model chicken broth (no MSG added, 0.3% sugar added), blind umami ranking; conditions: for Level preferred by panelists in this base: model chicken broth, 0.3% sugar added, % by weight
Method: (§1) The following compositions are made and tested. Using a bench-top tasting panel (consisting of 10 panelists—flavorists, application experts), panelists were asked to record the sensory attribute differences (umami) between the samples. All samples were tasted blind and ranked on umami. Model Chicken Broth—no MSG Added, 0.3% Sugar Added The model chicken broth powder was prepared from 11.9 g chicken fat, 23.81 g salt, 14.29 g sugar, 0.95 g onion powder, 49.01 g chicken powder, 0.04 g turmeric powder. To prepare the model chicken broth 2.0 g of powder was mixed 98.0 g hot water.

[3] = system: small group of flavourists; experiment: Tomato soup formulation tasting against reference soup; conditions: 1.5 ppm compound in tomato soup containing MSG; 4 flavourists
Method: A tomato soup mix was prepared from 9.4 g sodium chloride, 1 g MSG, 0.08 g ribonucleotides (ex yeast), 32 g tomato powder (ex Spreda), 25.1 g glucose, 21 g starch (Ultrasperse™ 5 ex National Starch), 5 g palm fat powder, 3 g yeast powder, 1 g onion powder, 0.15 g carrot powder, 0.05 g ground white pepper, 0.3 g celery extract powder, 0.05 g ground laurel leaf powder, and 1.85 g sucrose. 25 g of the well-mixed ingredients was added to 250 g of boiling water and stirred until completely dissolved, to give a reference soup.
The reference soup was compared with a batch of the same soup containing 1.5 ppm of 1-(2-hydroxy-4-isobutoxyphenyl)-3-(pyridine-2-yl)propan-1-one.

bench-top tasting panel [4] = experiment: Commercial organic chicken broth, blind umami ranking; conditions: for Level preferred by panelists in this base: commercial organic chicken broth, % by weight
Excerpt: The following compositions are made and tested. Using a bench-top tasting panel (consisting of 10 panelists—flavorists, application experts), panelists were asked to record the sensory attribute differences (umami) between the samples. All samples were tasted blind and ranked on umami. Commercial Organic Chicken Broth (Swanson's Certified Organic Chicken Broth—No added MSG, contains about 0.4% sugars)

bench-top tasting panel [5] = experiment: Model chicken broth (no MSG added, no sugar added), blind umami ranking; conditions: for Level preferred by panelists in this base: model chicken broth, no MSG added, % by weight
Method: as §1, with “no” for “0.3%”

[6] = system: small group of flavourists; experiment: Tomato ketchup tasting; conditions: 2 ppm compound in tomato ketchup; 4 flavourists
Method: A tomato ketchup was prepared from 19% tomato paste (28-30% dry weight), 8% vinegar (15%), 3% sodium chloride, 20% sugar and 50% water.
To one-half of the batch was added 2 ppm of 1-(2-hydroxy-4-methoxyphenyl)-3-(pyridin-2-yl)propan-1-one.

trained sensory panel [7] = experiment: Potato chips tasting
Method: Plain potato chips were prepared.
One part was flavoured with 1.2% sodium chloride (sample A),
One part was flavoured with 1.2% sodium chloride and 0.3% MSG (sample B),
One part was flavoured with 1.2% sodium chloride and 2 ppm of 1-(2-hydroxy-4-methylphenyl)-3-(pyridin-2-yl)propan-1-one (sample C).
(§2) The samples were tasted by a trained sensory panel composed of 20 women aged between 30 and 60.

trained sensory panel [8] = experiment: Comparative test with MSG: tasting of 0.3% NaCl / 0.03% MSG solution with compound; conditions: 5 ppm compound in 0.3% NaCl and 0.03% MSG; Solution A without compound: salty, umami
Method: Two solutions were prepared:
A: a solution of 0.3% NaCl and 0.03% MSG,
B: a solution of 0.3% NaCl, 0.03% MSG and 5 ppm of 1-(4-hydroxybenzo[d][1,3]dioxol-5-yl)-3-(pyridin-2-yl)propan-1-one.
as §2

[9] = 0.002% compound in model chicken broth, sugar added, Control 6th
[10] = 0.002% compound in commercial organic chicken broth, Control 5th
[11] = 0.001% compound in model chicken broth, Control 5th

Cc1cc(C)c(O)c(C(=O)CCc2ccccn2)c1 [1-(2-hydroxy-3,5-dimethylphenyl)3-(pyridine-2-yl)propan-1-one]
Taste description (trained sensory panel [1]): Umami

Cc1cc(O)c(C(=O)CCc2ccccn2)cc1C [1-(2-hydroxy-4,5-dimethylphenyl)-3-(pyridine-2-yl)propan-1-one]
Performance when evaluating for umami (bench-top tasting panel [2]; 0.002% compound in model chicken broth, sugar added): performed well
Finishing position in blind ranking of 6 samples on umami (bench-top tasting panel [2]; [9]): 2
Level preferred by panelists in this base (bench-top tasting panel [2]): 0.002%
Taste description (trained sensory panel [1]): Umami, sweet, savoury, salty

CC(C)COc1ccc(C(=O)CCc2ccccn2)c(O)c1 [1-(2-hydroxy-4-isobutoxyphenyl)-3-(pyridine-2-yl)propan-1-one]
Finishing position in blind ranking of 6 samples on umami (bench-top tasting panel [2]; [9]): 4
Level preferred by panelists in this base (bench-top tasting panel [2]): 0.002%
Taste description (trained sensory panel [1]): Umami, sweet, salty, bouillon, lingering,
Taste of test soup compared with reference soup [3]: more umami, had a clear lingering effect, was more salty and was more complex
Finishing position in blind ranking of 6 samples on umami (bench-top tasting panel [4]; [10]): 3
Level preferred by panelists in this base (bench-top tasting panel [4]): 0.002%
Finishing position in blind ranking of 6 samples on umami (bench-top tasting panel [5]; [11]): 4
Level preferred by panelists in this base (bench-top tasting panel [5]): 0.001%

COc1ccc(C(=O)CCc2ccccn2)c(O)c1 [1-(2-hydroxy-4-methoxyphenyl)-3-(pyridin-2-yl)propan-1-one]
Finishing position in blind ranking of 6 samples on umami (bench-top tasting panel [2]; [9]): 3
Level preferred by panelists in this base (bench-top tasting panel [2]): 0.002%
Taste description (trained sensory panel [1]): umami, sweet, salty, longlasting
Taste of test ketchup compared with ketchup without the compound [6]: clearly more umami, more salty and had a pleasant savoury note
Finishing position in blind ranking of 6 samples on umami (bench-top tasting panel [4]; [10]): 4
Level preferred by panelists in this base (bench-top tasting panel [4]): 0.002%
Finishing position in blind ranking of 6 samples on umami (bench-top tasting panel [5]; [11]): 2
Level preferred by panelists in this base (bench-top tasting panel [5]): 0.001%

Cc1ccc(C(=O)CCc2ccccn2)c(O)c1 [1-(2-hydroxy-4-methylphenyl)-3-(pyridin-2-yl)propan-1-one]
Finishing position in blind ranking of 6 samples on umami (bench-top tasting panel [2]; 0.001% compound in model chicken broth, sugar added, Control 6th): 5
Level preferred by panelists in this base (bench-top tasting panel [2]): 0.001%
Taste description (trained sensory panel [1]): Umami, sweet, licorice, savoury
Finishing position in blind ranking of 6 samples on umami (bench-top tasting panel [4]; 0.001% compound in commercial organic chicken broth, Control 5th): 2
Level preferred by panelists in this base (bench-top tasting panel [4]): 0.001%
Finishing position in blind ranking of 6 samples on umami (bench-top tasting panel [5]; 0.0005% compound in model chicken broth, Control 5th): 3
Level preferred by panelists in this base (bench-top tasting panel [5]): 0.0005%
Taste description (sample C) (trained sensory panel [7]; potato chips with 1.2% sodium chloride and 2 ppm compound, sample A with salt only: salty): salty, strong umami, long lasting, savoury, bouillon
Panel preference (trained sensory panel [7]; potato chips, sample C (1.2% sodium chloride, 2 ppm compound) versus sample A (salt) and sample B (salt, 0.3% MSG)): preferred sample C over the other two samples

Cc1ccc(O)c(C(=O)CCc2ccccn2)c1 [1-(2-hydroxy-5-methylphenyl)-3-(pyridine-2-yl)propan-1-one]
Taste description (trained sensory panel [1]): Umami

Cc1cccnc1CCC(=O)c1ccccc1O [1-(2-hydroxyphenyl)-3-(3-methylpyridin-2-yl)propan-1-one]
Taste description (trained sensory panel [1]): Slightly umami, savoury, meaty

Cc1ccc(CCC(=O)c2ccccc2O)nc1 [1-(2-hydroxyphenyl)-3-(5-methylpyridin-2-yl)propan-1-one]
Taste description (trained sensory panel [1]): Slightly umami, some green aftertaste,

COc1ccccc1C(=O)CCc1ccccn1 [1-(2-methoxyphenyl)-3-(pyridin-2-yl)propan-1-one]
Taste description (trained sensory panel [1]): Umami, slightly bitter

O=C(CCc1ccccn1)c1ccc(OC2CCCC2)cc1O [1-(4-(cyclopentyloxy)-2-hydroxyphenyl)-3-(pyridine-2-yl)propan-1-one]
Taste description (trained sensory panel [1]): Umami

O=C(CCc1ccccn1)c1ccc(OCC2CC2)cc1O [1-(4-cyclopropylmethoxy)-2-hydroxyphenyl)-3-(pyridine-2-yl)propan-1-one]
Taste description (trained sensory panel [1]): Umami

CCOc1ccc(C(=O)CCc2ccccn2)c(O)c1 [1-(4-ethoxy-2-hydroxyphenyl)-3-(pyridine-2-yl)propan-1-one]
Taste description (trained sensory panel [1]): Umami, floral

O=C(CCc1ccccn1)c1ccc2c(c1O)OCO2 [1-(4-hydroxybenzo[d][1,3]dioxol-5-yl)-3-(pyridin-2-yl)propan-1-one]
Taste description (trained sensory panel [1]): Clearly umami, slightly yeasty, bouillon
Taste description (Solution B) (trained sensory panel [8]): salty, umami, more bouillon-like, more complex, less sweet

CCc1ccc(O)c(C(=O)CCc2ccccn2)c1 [1-(5-ethyl-2-hydroxyphenyl)-3-(pyridine-2-yl)propan-1-one]
Taste description (trained sensory panel [1]): Umami, slightly bitter

N[C@@H](CCC(=O)O)C(=O)[O-].[Na+] [MSG, monosodium glutamate, reference compound]
Finishing position in blind ranking of 6 samples on umami (bench-top tasting panel [2]; 0.05% MSG (Reference) in model chicken broth, sugar added): highest umami
Finishing position in blind ranking of 6 samples on umami (bench-top tasting panel [4]; 0.05% MSG (Reference) in commercial organic chicken broth): highest umami
Finishing position in blind ranking of 6 samples on umami (bench-top tasting panel [5]; 0.05% MSG (Reference) in model chicken broth): highest umami
Taste description (sample B) (trained sensory panel [7]; potato chips with 1.2% sodium chloride and 0.3% MSG): salty and umami
